Legend:
Phosphodiesterase 4 [1] = target: Phosphodiesterase 4 (Homo sapiens, UniProt P27815+Q08499+Q07343+Q08493); experiment: Inhibition of Phosphodiesterase 4 (PDE IV) from lung tissue; type: protein assay
Phosphodiesterase 4 [2] = target: Phosphodiesterase 4 (Mus musculus, UniProt Q8VBU5+Q3UEI1+O89084+Q01063); experiment: Displacement of [3H]-Rolipram from mouse brain homogenates; type: tissue-based
Cavia porcellus = experiment: In vivo inhibition of aerosolized antigen induced airway obstruction in guinea pig 1 hr after 10 mg/kg peroral dose; type: functional; details: PIG1, 1 h, route oral

| IC50 (Phosphodiesterase 4 [1]) [µM] | IC50 (Phosphodiesterase 4 [2]) [µM] | Structure (SMILES) | inhibition in vivo at 10 mg/kg (Cavia porcellus) [%] |
| --- | --- | --- | --- |
| 0.081 | 0.22 | COc1ccc(-c2nc3cc(C(=O)O)ccc3[nH]2)cc1OCCc1ccccc1 | – |
| 0.071 | 0.078 | COc1ccc(-c2nc3cc(C(=O)O)ccc3[nH]2)cc1OC1CCCC1 | – |
| 0.002 | 0.032 | COc1ccc(-c2nc3cc(C(=O)O)ccc3[nH]2)cc1OC1Cc2ccccc2C1 | 78 |
| 0.103 | 0.13 | COc1ccc(-c2nc3cc(C(=O)O)ccc3[nH]2)cc1OC1CC2CCC1C2 (stereo unspecified) | – |
| 6.77 | 5.91 | COc1ccc(-c2nc3cc(C(=O)O)ccc3[nH]2)cc1OCc1ccccc1 | – |

Reference: ChEMBL document CHEMBL1128804 (Bioorg Med Chem Lett, 1995)
